The source of these data is PubChem BioAssay (NCI).

Among the test systems are HCT-116 colon; MALME-3M melanoma; NCI-H460 lung; SR leukemia; CAKI-1 renal; OVCAR-4 ovarian; U251 CNS; MDA-N; 786-0 renal; SF-539 CNS; COLO 205 colon; A498 renal; HOP-92 NSCLC; MOLT-4 leukemia; SK-OV-3 ovarian; OVCAR-3 ovarian.
Test in all cases: DTP human tumour cell line panel, 48 h

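Each compound was tested at five concentrations against cells in 96-well plates for 48 hours. TGI marks complete inhibition of growth.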

With `O=c1ccn([C@@H]2C[C@@H]2CO)c(=O)[nH]1`, the TGI in the experiment with HCT-116 colon, with MALME-3M melanoma, with NCI-H460 lung, in the experiment with SR leukemia, in the experiment on CAKI-1 renal and in the experiment with OVCAR-4 ovarian was more than 100 µM throughout. Besides, the TGI with U251 CNS, in the experiment on MDA-N, in the experiment on 786-0 renal, in the experiment with SF-539 CNS, in the experiment with COLO 205 colon and with A498 renal was more than 100 µM in each case. In the experiment on HOP-92 NSCLC, this compound returned a TGI of more than 100 µM.

With `C=CCC1(OC(C)=O)C2OC(=O)C1(O)OCC2O` (stereo not given), the TGI in the experiment with HCT-116 colon, in the experiment with MALME-3M melanoma, with NCI-H460 lung, in the experiment on MOLT-4 leukemia, with SR leukemia and with CAKI-1 renal was more than 100 µM throughout. The TGI in the experiment with OVCAR-4 ovarian, in the experiment on U251 CNS, with SK-OV-3 ovarian, in the experiment on MDA-N, with 786-0 renal and in the experiment on SF-539 CNS was more than 100 µM in each case. The TGI with COLO 205 colon, in the experiment with OVCAR-3 ovarian and in the experiment on A498 renal was more than 100 µM throughout.

On to `Cc1nn(C(=O)c2ccc(Cl)cc2)c2c1C(c1ccccc1[N+](=O)[O-])SC(N)=N2` (stereo not given), for which the TGI in the experiment with HCT-116 colon, with MALME-3M melanoma, in the experiment on NCI-H460 lung, in the experiment with MOLT-4 leukemia, in the experiment on SR leukemia and in the experiment with CAKI-1 renal was more than 10 µM throughout. The TGI with OVCAR-4 ovarian, with U251 CNS, in the experiment on SK-OV-3 ovarian, in the experiment with MDA-N, in the experiment with 786-0 renal and in the experiment with SF-539 CNS was more than 10 µM in each case. For the same compound, the TGI in the experiment on COLO 205 colon, with OVCAR-3 ovarian and in the experiment on HOP-92 NSCLC was more than 10 µM each time.

In the case of `C[C@@H](c1ccccc1)N1CN(C(=O)OCc2ccccc2)C(C)(C)CC1=O`, the TGI in the experiment with HCT-116 colon, in the experiment with MALME-3M melanoma, with NCI-H460 lung, in the experiment on MOLT-4 leukemia, in the experiment with SR leukemia and in the experiment on CAKI-1 renal was more than 100 µM throughout. Also, the TGI with OVCAR-4 ovarian, in the experiment with U251 CNS, in the experiment with SK-OV-3 ovarian, with MDA-N, with 786-0 renal and in the experiment on SF-539 CNS was more than 100 µM each time. In addition, the TGI in the experiment with COLO 205 colon, in the experiment on OVCAR-3 ovarian and in the experiment on HOP-92 NSCLC was more than 100 µM in each case.

With `Cc1ccc(/C=C/c2nnc(N/N=C/c3ccc4c(c3)OCO4)[nH]c2=O)cc1`, the total growth inhibition concentration (TGI) with HCT-116 colon was 45.9 µM; with MALME-3M melanoma, more than 100 µM; in the experiment on NCI-H460 lung, 57.6 µM; in the experiment with MOLT-4 leukemia, more than 100 µM; in the experiment with SR leukemia, 40.9 µM; with CAKI-1 renal, 91.8 µM. Besides, the TGI in the experiment with OVCAR-4 ovarian was determined as 36.8 µM; in the experiment with U251 CNS, 33.6 µM; in the experiment on SK-OV-3 ovarian it was 93.2 µM; in the experiment with MDA-N it was 62.4 µM; in the experiment with 786-0 renal, 27.9 µM; in the experiment with SF-539 CNS, 42.4 µM. In addition, the TGI with COLO 205 colon is more than 100 µM; with OVCAR-3 ovarian, 36.2 µM.

For `COc1ccc(-n2c(=O)[nH]n(C(C)=O)c2=O)cc1`, the TGI in the experiment on HCT-116 colon, in the experiment with MALME-3M melanoma, in the experiment with NCI-H460 lung, in the experiment with MOLT-4 leukemia, with SR leukemia and in the experiment on CAKI-1 renal was more than 100 µM in each case. Besides, the TGI with OVCAR-4 ovarian, in the experiment on U251 CNS, with MDA-N, in the experiment on 786-0 renal, with SF-539 CNS and in the experiment on COLO 205 colon was more than 100 µM in each case. The TGI with A498 renal and with HOP-92 NSCLC was more than 100 µM in each case.

As to `COc1cc(CO)c(CC(=O)NCCCc2ccccc2)cc1OC`, the TGI in the experiment on HCT-116 colon, with MALME-3M melanoma, with NCI-H460 lung, in the experiment on MOLT-4 leukemia, in the experiment with SR leukemia and in the experiment with CAKI-1 renal was more than 100 µM each time. Besides, the TGI in the experiment with OVCAR-4 ovarian, in the experiment with U251 CNS, in the experiment with MDA-N, in the experiment on 786-0 renal, in the experiment with COLO 205 colon and in the experiment with OVCAR-3 ovarian was more than 100 µM in each case. Also, the total growth inhibition concentration (TGI) in the experiment on A498 renal and with HOP-92 NSCLC was more than 100 µM throughout.

Consider `CCn1c(SCC(=O)NNC(=S)Nc2ccc([N+](=O)[O-])cc2)nc2ccccc2c1=O`, for which the TGI with HCT-116 colon is more than 100 µM; in the experiment on MALME-3M melanoma it was more than 100 µM; in the experiment on NCI-H460 lung, more than 100 µM; in the experiment with MOLT-4 leukemia, 65.8 µM; with SR leukemia, more than 100 µM; in the experiment on CAKI-1 renal, more than 100 µM. For the same compound, the TGI in the experiment with OVCAR-4 ovarian, in the experiment with U251 CNS, with SK-OV-3 ovarian, in the experiment on MDA-N, in the experiment on 786-0 renal and with SF-539 CNS was more than 100 µM throughout. In addition, the TGI in the experiment on COLO 205 colon, in the experiment on OVCAR-3 ovarian and with A498 renal was more than 100 µM in each case.

With `COC(=O)CNS(=O)(=O)c1ccc(-c2c3nc(c(-c4ccc(S(=O)(=O)NCC(=O)OC)cc4)c4ccc([nH]4)c(-c4ccc(S(=O)(=O)NCC(=O)OC)cc4)c4nc(c(-c5ccc(S(=O)(=O)NCC(=O)OC)cc5)c5ccc2[nH]5)C=C4)C=C3)cc1`, the TGI in the experiment on HCT-116 colon, in the experiment on MALME-3M melanoma, in the experiment on NCI-H460 lung, in the experiment with MOLT-4 leukemia, in the experiment on SR leukemia and with CAKI-1 renal was more than 100 µM throughout. Besides, the TGI in the experiment on OVCAR-4 ovarian, in the experiment on U251 CNS, in the experiment with SK-OV-3 ovarian, in the experiment on MDA-N, in the experiment with 786-0 renal and in the experiment with SF-539 CNS was more than 100 µM throughout. Moreover, the TGI with COLO 205 colon, in the experiment on OVCAR-3 ovarian and in the experiment with A498 renal was more than 100 µM each time.
